The values that follow come from patent US9120774B2 (University of Kansas, priority 2009, dated 2015).

Structures are written as SMILES. Like-named read-outs stand apart in the source and are kept apart here. A value given as a limit tells only on which side of the number the result lay.

Common to all, as to type: cell-based
The test system of test [1] is PC-3 (androgen independent prostate cancer cells). The test is described as follows: Anti-proliferation activity against PC-3 cells. To be noted: for IC50: Homo sapiens. The protocol:
(§1) Upon completion of synthesis of library of compounds in Examples 23 and 24, the compounds were evaluated for anti-proliferative activity against SkBr3 (Her2 overexpressing breast cancer cells), MCF-7 (estrogen receptor positive breast cancer cells), HCT-116 (colon cancer cells characterized by wild-type p53), PL45 (pancreatic cancer cells), LNCaP (androgen sensitive prostate cancer cells) and PC-3 (androgen independent prostate cancer cells) cell lines. […] The monosubstituted benzamide variants improved activity.
Cells were maintained in a 1:1 mixture of Advanced DMEM/F12 (Gibco) supplemented with non-essential amino acids, L-glutamine (2 mM), streptomycin (500 ng/mL), penicillin (100 units/mL), and 10% FBS. Cells were grown to confluence in a humidified atmosphere (37° C., 5% CO2), seeded (2000/well, 100 μl) in 96-well plates, and allowed to attach overnight. […] […] Cells incubated in 1% DMSO were used at 100% proliferation, and values were adjusted accordingly. IC50 values were calculated from separate experiments performed in triplicate using GraphPad Prism.

Test [2] concerns LNCaP (androgen sensitive prostate cancer cells). Nature of the test: Anti-proliferation activity against LNCaP cells. To be noted: for IC50: Homo sapiens, LNCaP, Table 6, 72 hours, MTS/PMS, mean ± standard deviation, read-out: IC50 LnCaP. As for the experimental part: as §1
(§2) Cells were maintained in a 1:1 mixture of Advanced DMEM/F12 (Gibco) supplemented with non-essential amino acids, L-glutamine (2 mM), streptomycin (500 ng/mL), penicillin (100 units/mL), and 10% FBS. Cells were grown to confluence in a humidified atmosphere (37° C., 5% CO2), seeded (2000/well, 100 μl) in 96-well plates, and allowed to attach overnight. Compound or GDA at varying concentrations in DMSO (1% DMSO final concentration) was added, and cells were returned to the incubator for 72 hours. At 72 hours, the number of viable cells was determined using an MTS/PMS cell proliferation kit (Promega) per the manufacturer's instructions. Cells incubated in 1% DMSO were used at 100% proliferation, and values were adjusted accordingly. IC50 values were calculated from separate experiments performed in triplicate using GraphPad Prism.

For test [3], the system named is SkBr3 (Her2 overexpressing breast cancer cells). Nature of the test: Anti-proliferation activity against SkBr3 cells (MTS/PMS). Particulars: Homo sapiens, SK-BR-3. The protocol:
(§3) Upon completion of synthesis of library of compounds in Examples 23 and 24, the compounds were evaluated for anti-proliferative activity against SkBr3 (Her2 overexpressing breast cancer cells), MCF-7 (estrogen receptor positive breast cancer cells), HCT-116 (colon cancer cells characterized by wild-type p53), PL45 (pancreatic cancer cells), LNCaP (androgen sensitive prostate cancer cells) and PC-3 (androgen independent prostate cancer cells) cell lines.
as §2
as §2, with “μg/mL),” for “ng/mL),”, “μL)” for “μl)”

For test [4], the system named is MCF-7 (estrogen receptor positive breast cancer cells). The test is described as follows: Anti-proliferation activity against MCF-7 cells (MTS/PMS). Particulars: for IC50: Homo sapiens, MCF7. The protocol:
as §3, §2
as §2, with “μg/mL),” for “ng/mL),”, “μL)” for “μl)”

Setting [5] is: PC-3, Table 6, 72 hours, MTS/PMS, mean ± standard deviation, read-out: IC50 PC-3.
Where [6] appears, read: Table 6, 72 hours, MTS/PMS, mean ± standard deviation, read-out: IC50 SKBr3.
The mark [7] stands for this setting: Table 6, 72 hours, MTS/PMS, mean ± standard deviation, read-out: IC50 MCF-7.
The mark [8] stands for this setting: Table 21, substituted indole-2-carboxamide analogues with noviose replacements, read-out: IC50, SKBr3.
[9] abbreviates: Table 21, substituted indole-2-carboxamide analogues with noviose replacements, read-out: IC50, MCF-7.
Setting [10] is: Table 19, 7-oxyalkylamino and 7-oxypiperidinyl analogues, read-out: IC50, SKBr3.
The mark [11] stands for this setting: Table 19, 7-oxyalkylamino and 7-oxypiperidinyl analogues, read-out: IC50, MCF-7.

Take `COc1cccc(-c2cc(C(=O)Nc3cc4ccc(OCc5cccnc5)c(C)c4oc3=O)ccc2OC)c1` [3′,6-dimethoxy-N-(8-methyl-2-oxo-7-(pyridin-3-ylmethoxy)-2H-chromen-3-yl)-[1,1′-biphenyl]-3-carboxamide]: in test [1] (PC-3, 24 hr., read-out: IC50), the IC50 is 3.8 µM.
Take `COc1cccc(-c2cc(C(=O)Nc3cc4cc(OC)c(O[C@@H]5OC(C)(C)[C@H](OC)[C@@H](O)[C@H]5O)c(C)c4oc3=O)ccc2OC)c1` [26a, N-(7-((2S,3R,4S,5R)-3,4-dihydroxy-5-methoxy-6,6-dimethyltetrahydro-2H-pyran-2-yloxy)-6-methoxy-8-methyl-2-oxo-2H-chromen-3-yl)-3′,6-dimethoxybiphenyl-3-carboxamide]: the IC50 was 35.4 µM in test [1] (setting [5]), 6.6 µM in test [2], 58.8 ± 1.3 µM in test [3] (setting [6]) and over 100 µM in test [4] (setting [7]). Besides, the “fold increase in anti-proliferation activity versus the 6-H derivative” value in test [1] (PC-3 cells) is 2 fold.
For `CCCOc1cc2cc(NC(=O)c3ccc(OC)c(-c4cccc(OC)c4)c3)c(=O)oc2c(C)c1O[C@@H]1OC(C)(C)[C@H](OC)[C@@H](O)[C@H]1O` [26b, N-(7-((2S,3R,4S,5R)-3,4-dihydroxy-5-methoxy-6,6-dimethyltetrahydro-2H-pyran-2-yloxy)-8-methyl-2-oxo-6-propoxy-2H-chromen-3-yl)-3′,6-dimethoxybiphenyl-3-carboxamide], in that order: 5.6 ± 5.7 µM, 3 ± 0.6 µM, over 100 µM, over 100 µM and 10 fold.
`COc1cccc(-c2cc(C(=O)Nc3cc4cc(OC(C)C)c(O[C@@H]5OC(C)(C)[C@H](OC)[C@@H](O)[C@H]5O)c(C)c4oc3=O)ccc2OC)c1` [26c, N-(7-((2S,3R,4S,5R)-3,4-dihydroxy-5-methoxy-6,6-dimethyltetrahydro-2H-pyran-2-yloxy)-6-isopropoxy-8-methyl-2-oxo-2H-chromen-3-yl)-3′,6-dimethoxybiphenyl-3-carboxamide]: the IC50 in test [1] (setting [5]) is 60.7 ± 9.1 µM; in test [2], 14.4 ± 4.2 µM; in test [3] (setting [6]) it was 58.6 ± 5.4 µM; in test [4] (setting [7]), 66.9 ± 3.1 µM. Also, the “times less active than the corresponding 6-H” value in test [2] (LnCaP cells) was about 7 times.
Turning to `COc1cccc(-c2cc(C(=O)Nc3cc4ccc(O[C@@H]5OC(C)(C)[C@H](OC)[C@@H](O)[C@H]5O)c(Cc5ccccc5)c4oc3=O)ccc2OC)c1` [26e, N-(8-benzyl-7-((2R,3R,4S,5R)-3,4-dihydroxy-5-methoxy-6,6-dimethyltetrahydro-2H-pyran-2-yloxy)-2-oxo-2H-chromen-3-yl)-3′,6-dimethoxybiphenyl-3-carboxamide], the IC50 in test [1] (setting [5]) was over 100 µM; in test [2], 49.7 ± 25 µM; in test [3] (setting [6]) it was over 100 µM; in test [4] (setting [7]) it was over 100 µM.
For `COc1cccc(-c2cc(C(=O)Nc3cc4ccc(O[C@@H]5OC(C)(C)[C@H](OC)[C@@H](O)[C@H]5O)c(-c5ccccc5)c4oc3=O)ccc2OC)c1` [26f, N-(7-((2R,3R,4S,5R)-3,4-dihydroxy-5-methoxy-6,6-dimethyltetrahydro-2H-pyran-2-yloxy)-2-oxo-8-phenyl-2H-chromen-3-yl)-3′,6-dimethoxybiphenyl-3-carboxamide], the 50% inhibitory concentration (IC50) is over 100 µM in test [1] (setting [5]), 1 ± 0.1 µM in test [2], 17.3 ± 3.4 µM in test [3] (setting [6]) and over 100 µM in test [4] (setting [7]).
For `CCc1c(O[C@@H]2OC(C)(C)[C@H](OC)[C@@H](O)[C@H]2O)ccc2cc(NC(=O)c3ccc(OC)c(-c4cccc(OC)c4)c3)c(=O)oc12` [26h, N-(7-((2R,3R,4S,5R)-3,4-dihydroxy-5-methoxy-6,6-dimethyltetrahydro-2H-pyran-2-yloxy)-8-ethyl-2-oxo-2H-chromen-3-yl)-3′,6-dimethoxybiphenyl-3-carboxamide], the IC50 in test [1] (setting [5]) came to 1.8 ± 0.6 µM; in test [2] it was 1.6 ± 0.3 µM; in test [3] (setting [6]) it was 28.6 ± 1.1 µM; in test [4] (setting [7]) it was 41.7 ± 14 µM. For the same compound, the “fold increased activity versus the 8-methyl derivative” value in test [1] (PC-3 cells) was found to be 10 fold.
With `COc1cc2cc(NC(=O)c3cc4ccccc4[nH]3)c(=O)oc2c(C)c1O[C@@H]1OC(C)(C)[C@H](OC)[C@@H](O)[C@H]1O` [26i, N-(7-((2S,3R,4S,5R)-3,4-dihydroxy-5-methoxy-6,6-dimethyltetrahydro-2H-pyran-2-yloxy)-6-methoxy-8-methyl-2-oxo-2H-chromen-3-yl)-1H-indole-2-carboxamide], the IC50 is 20.2 ± 9.8 µM in test [1] (setting [5]), 10.5 ± 0.3 µM in test [2], 25.1 ± 7.7 µM in test [3] (setting [6]) and 24.4 ± 1.2 µM in test [4] (setting [7]).
As to `CCCOc1cc2cc(NC(=O)c3cc4ccccc4[nH]3)c(=O)oc2c(C)c1O[C@@H]1OC(C)(C)[C@H](OC)[C@@H](O)[C@H]1O` [26j, N-(7-((2S,3R,4S,5R)-3,4-dihydroxy-5-methoxy-6,6-dimethyltetrahydro-2H-pyran-2-yloxy)-8-methyl-2-oxo-6-propoxy-2H-chromen-3-yl)-1H-indole-2-carboxamide], the IC50 was 6.2 ± 1.8 µM in test [1] (setting [5]), 1.8 ± 0.7 µM in test [2], 2.1 ± 0.8 µM in test [3] (setting [6]) and 2.1 ± 0.1 µM in test [4] (setting [7]).
For `CO[C@@H]1[C@@H](O)[C@@H](O)[C@H](Oc2c(OC(C)C)cc3cc(NC(=O)c4cc5ccccc5[nH]4)c(=O)oc3c2C)OC1(C)C` [26k, N-(7-((2S,3R,4S,5R)-3,4-dihydroxy-5-methoxy-6,6-dimethyltetrahydro-2H-pyran-2-yloxy)-6-isopropoxy-8-methyl-2-oxo-2H-chromen-3-yl)-1H-indole-2-carboxamide], in that order: 11.9 µM, 11.4 µM, 20.7 ± 0.4 µM and 20 ± 1 µM.
For `CO[C@@H]1[C@@H](O)[C@@H](O)[C@H](Oc2ccc3cc(NC(=O)c4cc5ccccc5[nH]4)c(=O)oc3c2-c2ccccc2)OC1(C)C` [26n, N-(7-((2R,3R,4S,5R)-3,4-dihydroxy-5-methoxy-6,6-dimethyltetrahydro-2H-pyran-2-yloxy)-2-oxo-8-phenyl-2H-chromen-3-yl)-1H-indole-2-carboxamide], the IC50 in test [1] (setting [5]) turned out to be 28 ± 12.1 µM; in test [2], 27.6 ± 10.8 µM; in test [3] (setting [6]) it was 38.8 ± 8.3 µM; in test [4] (setting [7]) it was 22.9 ± 2.1 µM. Moreover, the “fold less active than the 8-methyl derivative” value in test [4] (MCF-7 cells) was determined as 40 fold.
Regarding `COc1cc2cc(NC(=O)c3cc4cc(Cl)ccc4[nH]3)c(=O)oc2c(C)c1OC1CCN(C)CC1` [KU-386], the IC50 in test [3] (setting [8]) came to 0.51 ± 0.11 µM; in test [4] (setting [9]), 4.95 ± 0.45 µM.
For `COc1cc2cc(NC(=O)c3cc4cc(Cl)ccc4[nH]3)c(=O)oc2c(C)c1OCCCN(C)C` [KU-395], in that order: 0.5 ± 0.01 µM and 1.54 ± 0.15 µM.
As for `CC(C)=CCc1cc(C(=O)Nc2cc3ccc(OC4CCN(C)CC4)c(C)c3oc2=O)ccc1OCCN(C)C` [KU-456], the values for the IC50 in test [3] (setting [10]) and in test [4] (setting [11]) were 0.51 µM and 0.023 µM, respectively.
The matching figures for `CC(C)=CCc1cc(C(=O)Nc2cc3ccc(OC4CCN(C)CC4)c(C)c3oc2=O)ccc1OCCCN(C)C` [KU-457]: 0.35 ± 0.08 µM and 0.09 µM.
With `CC(C)=CCc1cc(C(=O)Nc2cc3ccc(OC4CCN(C)CC4)c(C)c3oc2=O)ccc1OC1CCN(C)CC1` [KU-458], the figures for the IC50 in test [3] (setting [10]) and in test [4] (setting [11]) were 0.095 µM and 0.15 µM, respectively.
For `COc1c(OC2CCN(C)CC2)ccc2cc(NC(=O)c3ccc(OCCN(C)C)c(CC=C(C)C)c3)c(=O)oc12` [KU-459], in that order: 0.29 µM and 0.09 µM.

Usually IC50 stands for the concentration at which inhibition is half-maximal.
